Test results from patent US20200207989A1, “FLUORESCENT PROBE FOR ALDH3A1 DETECTION” (The University of Tokyo, priority 2016, published 2020).

Assays:
[1] = molecular target: T1, ALDH1A1 (Homo sapiens, UniProt P00352); assay: Reactivity of probes to recombinant ALDH1A1 (UPLC/MS/MS detection of aldehyde and carboxylic acid forms); assay type: biochemical; conditions: 10-100 nM ALDH, 10-80 μM compound, Tris buffer pH 7.5, 30 minutes at 37° C., ◯/X not defined by a legend
T1 construct: purchased
T1 sequence (P00352 1-501): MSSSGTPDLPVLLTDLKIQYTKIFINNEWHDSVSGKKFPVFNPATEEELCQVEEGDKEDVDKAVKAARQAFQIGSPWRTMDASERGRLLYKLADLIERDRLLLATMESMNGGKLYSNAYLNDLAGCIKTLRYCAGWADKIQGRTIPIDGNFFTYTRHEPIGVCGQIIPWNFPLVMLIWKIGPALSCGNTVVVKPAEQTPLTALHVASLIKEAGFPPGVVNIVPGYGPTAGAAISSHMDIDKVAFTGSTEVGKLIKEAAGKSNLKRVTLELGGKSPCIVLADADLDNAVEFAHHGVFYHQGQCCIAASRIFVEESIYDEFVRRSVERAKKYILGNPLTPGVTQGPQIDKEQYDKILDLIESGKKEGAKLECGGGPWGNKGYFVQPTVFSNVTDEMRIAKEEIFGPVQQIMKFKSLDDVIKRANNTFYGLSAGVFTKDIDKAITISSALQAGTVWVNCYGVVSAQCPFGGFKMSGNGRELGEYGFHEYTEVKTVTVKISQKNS
Protocol: (§1) Human recombinant ALDH1A1/1A3/3A1 was purchased, and 100 mM of KCL, 2 mM of DTT, 1 mM of NAD(P), 10-100 nM of each ALDH, and 10-80 μM of each compound were mixed in Tris buffer (100 mM, pH 7.5), reacted for 30 minutes at 37° C., an equal amount of acetonitrile added, and the reaction stopped. The reaction solution was analyzed by UPLC/MS/MS (Waters). The UPCL chromatogram was carried out over five minutes at a flow rate of 800 μL/min by a linear gradient from 5% acetonitrile 0.01 M ammonium formate/water to 95% acetonitrile 0.01 M ammonium formate/water. An aldehyde-form and carboxylic acid-form probe were detected by the absorbance at a wavelength of 504 nm, and m/z of the MS spectrum at each peak was confirmed to agree with the expected m/z.

[2] = molecular target: T2, ALDH1A3 (Homo sapiens, UniProt P47895); assay: Reactivity of probes to recombinant ALDH1A3 (UPLC/MS/MS); assay type: biochemical; conditions: 10-100 nM ALDH, 10-80 μM compound, Tris buffer pH 7.5, 30 minutes at 37° C., ◯/X not defined by a legend
T2 construct: purchased
T2 sequence (P47895 1-512): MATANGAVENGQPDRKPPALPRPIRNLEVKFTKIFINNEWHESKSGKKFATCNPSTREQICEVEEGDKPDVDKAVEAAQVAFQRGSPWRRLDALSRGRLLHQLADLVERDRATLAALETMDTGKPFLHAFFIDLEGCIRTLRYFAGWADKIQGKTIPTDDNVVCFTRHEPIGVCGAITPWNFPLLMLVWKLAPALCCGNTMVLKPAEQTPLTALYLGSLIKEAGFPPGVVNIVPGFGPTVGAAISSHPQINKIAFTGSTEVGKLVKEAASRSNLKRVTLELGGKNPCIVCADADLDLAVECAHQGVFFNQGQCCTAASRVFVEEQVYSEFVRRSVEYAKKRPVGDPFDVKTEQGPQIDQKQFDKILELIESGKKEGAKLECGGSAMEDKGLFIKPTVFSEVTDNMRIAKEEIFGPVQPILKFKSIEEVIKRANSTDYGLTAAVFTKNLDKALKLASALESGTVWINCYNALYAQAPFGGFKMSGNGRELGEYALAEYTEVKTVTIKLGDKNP
Protocol: as §1, with “formate/water.” for “formate/water. An aldehyde-form and carboxylic acid-form probe were detected by the absorbance at a wavelength of 504 nm, and m/z of the MS spectrum at each peak was confirmed to agree with the expected m/z.”

[3] = molecular target: T3, ALDH3A1 (Homo sapiens, UniProt P30838); assay: Reactivity of probes to recombinant ALDH3A1 (UPLC/MS/MS); assay type: biochemical; conditions: 10-100 nM ALDH, 10-80 μM compound, Tris buffer pH 7.5, 30 minutes at 37° C., ◯/X not defined by a legend
T3 construct: purchased
T3 sequence (P30838 1-453): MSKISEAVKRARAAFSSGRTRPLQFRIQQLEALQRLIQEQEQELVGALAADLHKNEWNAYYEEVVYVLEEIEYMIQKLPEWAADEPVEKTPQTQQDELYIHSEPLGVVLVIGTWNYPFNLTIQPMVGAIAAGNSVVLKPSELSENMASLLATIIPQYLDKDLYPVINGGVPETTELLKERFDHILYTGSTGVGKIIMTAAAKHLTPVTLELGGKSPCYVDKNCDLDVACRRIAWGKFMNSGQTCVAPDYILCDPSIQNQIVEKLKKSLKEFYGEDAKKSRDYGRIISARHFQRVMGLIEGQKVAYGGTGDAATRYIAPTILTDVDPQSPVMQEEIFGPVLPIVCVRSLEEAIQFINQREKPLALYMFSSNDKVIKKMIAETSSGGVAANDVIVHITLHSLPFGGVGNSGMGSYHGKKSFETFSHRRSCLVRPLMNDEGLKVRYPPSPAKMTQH
Protocol: as §1, with “formate/water.” for “formate/water. An aldehyde-form and carboxylic acid-form probe were detected by the absorbance at a wavelength of 504 nm, and m/z of the MS spectrum at each peak was confirmed to agree with the expected m/z.”

[4] = molecular target: T1, ALDH1A1; assay: Kinetic characteristics (Michaelis-Menten Km, Kcat) with ALDH1A1; assay type: biochemical; conditions: five minutes at 37° C., Tris buffer pH 7.5
Protocol: as §1
(§2) For the reaction, 100 mM of KCL, 2 mM of DTT, 1 mM of NAD(P), and five to six concentrations within the range of 10-100 nM of each ALDH and 0.1-80 μM of each probe were selected, mixed in Tris buffer (100 mM, pH 7.5), and reacted for five minutes at 37° C.; an equal amount of acetonitrile was added, and the reaction was stopped. Detection of the aldehyde-form/carboxylic acid-form probes was carried out using the same method as described above by UPLC/MS/MS. Km and Kcat were calculated by fitting the reaction rate at each probe concentration obtained to the Michaelis-Menten equation. A Kaleida Graph ver. 4.1 (Hulinks, Inc.) was used in fitting.

[5] = molecular target: T2, ALDH1A3; assay: Kinetic characteristics (Michaelis-Menten Km, Kcat) with ALDH1A3; assay type: biochemical; conditions: five minutes at 37° C., Tris buffer pH 7.5
Protocol: as §1, §2

[6] = tested on: OE21 cell line; assay: Cell imaging of OE21 cells against CB7 negative control; assay type: cell-based; conditions: probe 5: 40 μM, 90 minutes at 37° C., CB7 10 μM control
Protocol: 40 μM of probe 5 was added to culture medium (RPMI 1640, 10% FBS, 15 mM HEPES, phenol red-free). After culturing for 90 minutes at 37° C., the cells were washed using a chilled medium and examined under a confocal microscope. A sample with a specific ALDH3A1 inhibitor (1-[(4-fluorophenyl)sulfonyl]-2-methyl-1H-benzimidazole, CB7, 10 μM) added served as a negative control. Excitation was provided by a 488 nm laser, and observation was carried out at wavelengths of […] in detection.

In the case of “N-(4-formylbenzyl)-3-(1,3-dimethyl-4,4-difluoro-4-bora-3a,4a-diaza-s-indacen-5-yl)-propionamide [Probe 1]”, the “Reactivity to ALDH1A1” value [1] is reported as “◯”, the “Reactivity to ALDH1A1” value ([1]; listed as Compound 1) is reported as “reacted with all three of the isoforms tested” and the “Reactivity to ALDH1A3” value [2] is reported as “◯”. The “Reactivity to ALDH1A3” value ([2]; listed as Compound 1) was “reacted with all three of the isoforms tested”, the “Reactivity to ALDH3A1” value [3] was “◯” and the “Reactivity to ALDH3A1” value ([3]; listed as Compound 1) was “reacted with all three of the isoforms tested”. The “Kcat ALDH1A1” value [4] was 1.36 ± 0.045 s⁻¹, the Km [4] was under 0.2 µM and the “Kcat ALDH1A3” value [5] was 0.029 ± 0.0015 s⁻¹. The Km [5] was 1.64 ± 0.49 µM and the “Brightness of cells in imaging compared to negative control (CB7)” value [6] was “no evident difference in brightness could be found in comparison to the negative control”.
